These results are taken from patent US20050159345A1 (Boehringer Ingelheim International GmbH, priority 2002, published 2005).

By EC50 is commonly meant the midpoint of the concentration-response curve.

One assay deals with HCV replicon 1a. The assay is described as follows: Cell-based HCV 1a RNA replicon assay. As to conditions: Hepatitis C virus, 72 h; Huh-7-derived replicon cells, 3 day incubation, HCV RNA by RT-PCR. As for the experimental part:
(§1) These cells were used to establish a sensitive HCV RNA replication cell-based assay for testing candidate test compounds.
(§2) Huh7 cells that stably maintain a subgenomic HCV replicon were established as previously described (Lohman et al. 1999; WO 02/052015). The cells were seeded into a 96 well cell culture cluster at 1×10^4 cells per well in DMEM complemented with 10% FBS, PenStrep (Life Technologies) and […] Geneticin. Cells were incubated in a 5% CO2 incubator at 37° C. until addition of various concentrations of the test compound.
(§3) The test compound was prepared for use in the assay as follows. The test compound in 100% DMSO was added diluted in assay Medium for a final DMSO concentration of 0.5% and the solution was sonicated for 15 min and filtered through a […] Millipore Filter Unit. Serial dilutions of the test compounds were prepared using Assay Medium (containing 0.5% DMSO).
(§4) Cell culture medium was aspirated from the 96-well plate containing the cells and the appropriate dilution of test compound in assay medium was transferred to independent wells of the cell culture plate which was incubated at 37° with 5% CO2.
(§5) Following a 3 day-incubation period, the cells were washed with PBS and total cellular RNA was extracted with the RNeasy Mini Kit® and Qiashredder® from Qiagen. RNA from each well was eluted in 50 μL of H2O. RNA was quantified by optical density at 260 nm on the Cary 1E® UV-Visible spectrophotometer. The HCV RNA replicon copy number was evaluated by real-time RT-PCR with the Abi Prism® 7700 Sequence Detection System. The TAQMAN E® RT-PCR kit provides a system for the detection and analysis of RNA. Direct detection of the reverse transcription polymerase chain reaction (RT-PCR) product with no downstream processing was accomplished by monitoring the increase in fluorescence of a dye-labeled DNA probe. The nucleotide sequence of both primers and probe was located in the 5′ region of the HCV genome. The replicon copy number was then evaluated using a standard curve made with known amounts of replicon copy (supplemented with 50 ng of wild type Huh-7 RNA) assayed in the same reaction mix. The following thermal cycle parameters were used for the RT-PCR reaction on the ABI Prism® 7700 Sequence Detection System. Conditions were optimized for HCV detection. Quantification is based on the threshold cycle, where the amplification plot crosses a defined fluorescence threshold. Comparison of the threshold cycles provides a highly sensitive measure of relative template concentration in different samples. Monitoring during early cycles, when PCR fidelity is at its highest, provides precise data for accurate quantification. The relative template concentration can be converted to real numbers by using the standard curve of HCV with known number of copy.
(§6) The level of inhibition (% inhibition) of each well containing test compound was calculated with the following equation (CN═HCV Replicon copy number): [formula]
(§7) The calculated % inhibition values were then used to determine EC50, slope factor (n) and maximum inhibition (Imax) by the non-linear regression routine NLIN procedure of SAS using the following equation: [formula]
On the technique in general: In antiviral work, replicon cells carry a viral genome segment that copies itself.

A further assay relates to HCV replicon 1b. The assay is described as follows: Cell-based HCV 1b RNA replicon assay. Conditions: Hepatitis C virus, 72 h; Huh-7-derived replicon cells, 3 day incubation, HCV RNA by RT-PCR. As for the experimental part: as §1, §2, §3, §4, §5, §6, §7

In the case of `COc1ccc2c(O[C@@H]3C[C@H]4C(=O)N[C@]5(C(=O)NS(=O)(=O)c6ccccc6)CC5/C=C\CCCCC[C@H](NC(=O)OC5CCCC5)C(=O)N4C3)cc(-c3csc(NC(C)C)n3)nc2c1` (stereo partly drawn) [VI], the values for the EC50 with HCV replicon 1a and in the assay with HCV replicon 1b were 2.2 nM and 3 nM, respectively.

For the compound `COc1ccc2c(O[C@@H]3C[C@H]4C(=O)N[C@]5(C(=O)NS(=O)(=O)C6CC6)CC5/C=C\CCCCC[C@H](NC(=O)OC5CCCC5)C(=O)N4C3)cc(-c3csc(NC(C)C)n3)nc2c1` (stereo partly drawn), the EC50 is 0.7 nM in the assay on HCV replicon 1a and 1.1 nM in the assay on HCV replicon 1b.

Turning to `COc1ccc2c(O[C@@H]3C[C@H]4C(=O)N[C@]5(C(=O)NS(C)(=O)=O)CC5/C=C\CCCCC[C@H](NC(=O)OC5CCCC5)C(=O)N4C3)cc(-c3csc(NC(C)C)n3)nc2c1` (stereo partly drawn) [VII], the EC50 with HCV replicon 1a amounted to 3.2 nM; in the assay on HCV replicon 1b, 3.3 nM.
